Test results from US9937250B2, “Immunogenic tumor associated stromal cell antigen peptides and methods of their use” (University of Pittsburgh—Of the Commonwealth System of …, priority 2011, dated 2018).

Key:
[1] = tested on: CD8+ T cells from HLA-A2+ normal donors or HLA-A2+ melanoma patients; assay: In vitro sensitization of human CD8+ T cells with TASA peptide-pulsed autologous DC, IFN-γ ELISA against peptide-pulsed T2 cells; type: cell-based
Protocol: The indicated peptides were pulsed onto autologous DC and used to prime and boost CD8^+ T cells isolated from the peripheral blood of eight normal HLA-A2^+ donors or ten HLA-A2^+ patients with melanoma. Seven days after the primary in vitro sensitization (IVS) (melanoma patients) or a secondary IVS boost (normal donors), T cells were analyzed for their reactivity against HLA-A2^+ T2 cells pulsed with the relevant peptide vs. the negative control HIV-nef190-198 peptide. After 24 hours of co-culture, cell-free supernatants were analyzed for levels of secreted IFN-γ using a commercial ELISA. Data are reported in Bar and Whisker plots, with p-values provided for paired pre- versus post-IVS data from normal donors and patients. In addition, p<0.05 was detected for MEL-Post versus ND-Post for the following peptides: DLK1 (309), NG2 (770), NG2 (2238), PDGFRβ (891) and RGS5 (5).
In vitro assessment of human CD8^+ T cell responses against TASA- or TAA-derived peptides. Peripheral blood mononuclear cells (PBMC) were obtained by venipuncture or leukapheresis from HLA-A2^+ normal donors or HLA-A2^+ melanoma patients with written consent under IRB-approved protocols (Table 3). CD8^+ T cells were then isolated by MACS (Miltenyi Biotec, Auburn, Calif.) and either not stimulated or stimulated with autologous, TASA peptide-pulsed DC as previously described (Tatsumi et al., Cancer Res., 63:4481-4489, 2003). Normal donor T cells were stimulated with TASA peptide-pulsed DC twice on a weekly schedule, with responder T cells harvested for analysis of their specificity 5 days after the booster stimulation (i.e. day 12 of T cell-DC co-culture). Melanoma patient CD8^+ T cells were analyzed after a single round of stimulation with TASA peptide-pulsed, autologous DC (i.e. day 5 of T cell-DC co-culture) as indicated. For DC-based stimulations, DC were pulsed with an equimolar (1 μM each) pool of the TASA peptides (Table 4) for 4 h at 37° C. at 5% CO2 tension. These antigen-loaded DC were then used to stimulate autologous CD8^+ T cells at a T cell-to-DC ratio of 10:1 to generate a bulk population of responder T cells. T cells were maintained in IMDM media supplemented with 10% human AB serum, 100 U/ml penicillin, […], 10 mM L-glutamine and MEM non-essential amino acids (all reagents from Invitrogen, except human AB serum that was purchased from Sigma-Aldrich, St. Louis, Mo.). Responder CD8^+ T cells were analyzed for reactivity against control (HLA-A2^+) T2 cells or T2 cells pulsed with individual TASA or TAA peptides (1 μM for 4 h at 37° C.) at a CD8^+ T cell-to-T2 cell ratio of 5:1 for 24 h. Harvested cell-free supernatants were consequently assessed for hIFN-γ content using a specific ELISA (BD Biosciences, San Diego, Calif.) with a lower detection limit of 4.7 pg/ml.
CD8^+ T cells from HLA-A2^+ normal donors or HLA-A2^+ melanoma patients recognize TASA-derived peptides in vitro. To assess whether the TASA-derived peptides identified in the HHD tumor model were also capable of being recognized by human CD8^+ T cells, IVS was performed using T cells isolated from the peripheral blood of HLA-A2^+ donors or HLA-A2^+ patients with melanoma. DC were pulsed with peptides derived from a given TASA for 4 h at 37° C., then washed and used as stimulator cells for autologous CD8^+ T cells. In cases where more than one peptide existed for a given protein, DC were pulsed with an equimolar (10 μM) mixture of each peptide. Two rounds of IVS using TASA for normal donors and a single-round of IVS using TASA for melanoma patients was applied. HLA-A2^+ normal donors (FIG. 4; Tables 4, 5A and 5B) and melanoma patients (FIG. 4; Tables 4, 5A and 5B) were each capable of recognizing many of the TASA-derived peptides.

[2] = tested on: MC38 tumor microenvironment; assay: Fluorescence imaging of MC38 tumor sections after prophylactic vaccination; type: in vivo, HHD mice; details: day 14 tumors; p<0.05 vs. untreated or DC.IL12/no peptide
Excerpt: Day 14 MC38 tumors were harvested from HHD mice that had been vaccinated as outlined in FIG. 9B with the indicated peptides (or control PBS or DC.IL12 alone=No peptide). In FIG. 10A, six-micron tissue sections were co-stained with anti-CD8 (green) and anti-NG2 (red) antibodies and imaged by fluorescence microscopy. Blue signal=nuclear counterstain using 4′,6-diamidino-2-phenylindole (DAPI). FIG. 10B provides a summary of the mean+/−SD number of CD8^+ cells per high-power field (HPF) in MC38 tumors isolated from control or vaccinated mice as depicted in FIG. 10A. In FIG. 10C, tissue sections were co-stained with anti-CD31 (green) and anti-NG2 (red) antibodies and imaged by fluorescence microscopy. Blue signal=nuclear counterstain using DAPI. In FIG. 10D, the mean+/−SD number of CD31^+ vessels per HPF of MC38 tumors in control or vaccinated mice are summarized Representative data is depicted from 1 of 3 independent experiments performed. *p<0.05 versus DC only or untreated control mice.
Fluorescence Imaging of Tumor Sections. Tumor tissue samples were prepared and 6 micron sections prepared as previously reported (Komita et al., Cancer Res., 68:8076-8084, 2008). The following Abs were used: (for T cell analyses), rabbit anti-mouse NG2 (Millipore, Bedford, Mass.) and alexa488-conjugated anti-CD4 or -CD8β antibodies or matching isotype controls (all from BD-Biosciences); (for vascular analyses), rat anti-mouse CD31 (BD-Biosciences) and rabbit anti-mouse NG2 (Millipore) Abs; (for TBVA), rat anti-mouse CD31 (BD-Biosciences) and guinea pig anti-mouse NG2 Abs, along with anti-TBVA as described in Example 1. Imaging was performed using an Olympus Fluoview 500 Confocal microscope (Olympus America, Center Valley, Pa.).
Protective vaccines incorporating TBVA peptides promote enhanced infiltration of the TME by CD8^+ T cells in association with an inhibition of tumor vascularity. MC38 tumor lesions from all cohorts of animals with evidence of disease on day 14 (post-tumor inoculation) were isolated and immunofluorescence microscopy on tumor sections was performed. […] In marked contrast, CD4^+ T cell infiltration in the TME was sparse and the data were indistinguishable when comparing control vs. vaccinated mice (FIG. 17). […] Correlative analyses indicated an association between the anti-tumor efficacy of vaccines and their ability to promote CD8^+ T cell infiltration and reduced vascularity in the TME (FIG. 16).

Row | Substance | Specific CD8+ T cell Production of IFN-γ in Response to TASA ([1]; donor Mel1, melanoma patient) | Specific CD8+ T cell Production of IFN-γ in Response to TASA ([1]; donor Mel2, melanoma patient) | Specific CD8+ T cell Production of IFN-γ in Response to TASA ([1]; donor Mel4, melanoma patient) | Specific CD8+ T cell Production of IFN-γ in Response to TASA ([1]; donor Mel6, melanoma patient) | Specific CD8+ T cell Production of IFN-γ in Response to TASA ([1]; donor Mel8, melanoma patient) | Suppression in CD31+ vessel counts in the MC38 TME [2] | Specific CD8+ T cell Production of IFN-γ in Response to TASA ([1]; donor Mel3, melanoma patient) | Specific CD8+ T cell Production of IFN-γ in Response to TASA ([1]; donor Mel9, melanoma patient) | Specific CD8+ T cell Production of IFN-γ in Response to TASA ([1]; donor ND3, normal donor) | Specific CD8+ T cell Production of IFN-γ in Response to TASA ([1]; donor ND5, normal donor) | Specific CD8+ T Cell Response, HLA-A2+ Normal Donors (of 8) ([1]; number of responding donors of 8, response = IFN-γ >30 pg/ml and >2 fold HIV-nef control) | Specific CD8+ T Cell Response, HLA-A2+ Melanoma Patients (of 10) ([1]; number of responding patients of 10, response = IFN-γ >30 pg/ml and >2 fold HIV-nef control)
1 | RGS5: RGS5-derived peptide 5-13 pulsed onto DC or DC.IL12 (LAALPHSCL; listed as Homo sapiens) | + (Human responses were designated as + if T cell reactivity against T2 cells presenting the indicated peptide (IFN-γ ELISA) was >30 pg/ml and more than 2 fold higher than reactivity versus T2 cells pulsed with the negative control HIV-nef190-198 peptide) | + (Human responses were designated as + if T cell reactivity against T2 cells presenting the indicated peptide (IFN-γ ELISA) was >30 pg/ml and more than 2 fold higher than reactivity versus T2 cells pulsed with the negative control HIV-nef190-198 peptide) | + (Human responses were designated as + if T cell reactivity against T2 cells presenting the indicated peptide (IFN-γ ELISA) was >30 pg/ml and more than 2 fold higher than reactivity versus T2 cells pulsed with the negative control HIV-nef190-198 peptide) | + (Human responses were designated as + if T cell reactivity against T2 cells presenting the indicated peptide (IFN-γ ELISA) was >30 pg/ml and more than 2 fold higher than reactivity versus T2 cells pulsed with the negative control HIV-nef190-198 peptide) | + (Human responses were designated as + if T cell reactivity against T2 cells presenting the indicated peptide (IFN-γ ELISA) was >30 pg/ml and more than 2 fold higher than reactivity versus T2 cells pulsed with the negative control HIV-nef190-198 peptide) | greatest degree of suppression in CD31^+ vessel counts | – | – | – | – | – | –
2 | EphA2: EphA2-derived peptide 883-891 pulsed onto DC or DC.IL12 (TLADFDPRV; listed as Homo sapiens) | + (Human responses were designated as + if T cell reactivity against T2 cells presenting the indicated peptide (IFN-γ ELISA) was >30 pg/ml and more than 2 fold higher than reactivity versus T2 cells pulsed with the negative control HIV-nef190-198 peptide) | + (Human responses were designated as + if T cell reactivity against T2 cells presenting the indicated peptide (IFN-γ ELISA) was >30 pg/ml and more than 2 fold higher than reactivity versus T2 cells pulsed with the negative control HIV-nef190-198 peptide) | + (Human responses were designated as + if T cell reactivity against T2 cells presenting the indicated peptide (IFN-γ ELISA) was >30 pg/ml and more than 2 fold higher than reactivity versus T2 cells pulsed with the negative control HIV-nef190-198 peptide) | + (Human responses were designated as + if T cell reactivity against T2 cells presenting the indicated peptide (IFN-γ ELISA) was >30 pg/ml and more than 2 fold higher than reactivity versus T2 cells pulsed with the negative control HIV-nef190-198 peptide) | – | greatest degree of suppression in CD31^+ vessel counts | + (Human responses were designated as + if T cell reactivity against T2 cells presenting the indicated peptide (IFN-γ ELISA) was >30 pg/ml and more than 2 fold higher than reactivity versus T2 cells pulsed with the negative control HIV-nef190-198 peptide) | + (Human responses were designated as + if T cell reactivity against T2 cells presenting the indicated peptide (IFN-γ ELISA) was >30 pg/ml and more than 2 fold higher than reactivity versus T2 cells pulsed with the negative control HIV-nef190-198 peptide) | + (Human responses were designated as + if T cell reactivity against T2 cells presenting the indicated peptide (IFN-γ ELISA) was >30 pg/ml and more than 2 fold higher than reactivity versus T2 cells pulsed with the negative control HIV-nef190-198 peptide) | + (Human responses were designated as + if T cell reactivity against T2 cells presenting the indicated peptide (IFN-γ ELISA) was >30 pg/ml and more than 2 fold higher than reactivity versus T2 cells pulsed with the negative control HIV-nef190-198 peptide) | – | –
3 | LAALPHSCL (listed as Homo sapiens) | – | – | – | – | – | – | – | – | – | – | 0 | 5
